Laboratory results from US20010051636A1, “Combination treatment for inhibiting bone loss” (priority 1994, published 2001).
Marks after values point to notes of the source that are not given here.

Columns and labels:
Type in all cases: in vivo
[1] = tested on: ovariectomized (ovex) rats; experiment: 5-week ovex rat model of post-menopausal osteoporosis: femur density by X-ray grey scale image analysis; details: for anti-resorptive activity (in words): 0.1 mg/kg, each compound separately; for RANGE 0-60 (relative density of bone, femur X-ray grey scale): Table 3
Experimental: In the following, a model of post-menopausal osteoporosis was used in which effects of different treatments upon femur density were determined.
Seventy-five day old female Sprague Dawley rats (weight range of 225 to 275 g) were obtained from Charles River Laboratories (Portage, Mich.). They were housed in groups of 3 and had ad libitum access to food (calcium content approximately 1%) and water. Room temperature was maintained at 22.2°±1.7° C. with a minimum relative humidity of 40%. The photoperiod in the room was 12 hours light and 12 hours dark.
One week after arrival, the rats underwent bilateral ovariectomy under anesthesia (44 mg/kg Ketamine and 5 mg/kg Xylazine (Butler, Indianapolis, Ind.) administered intramuscularly). Treatment with vehicle or the indicated compound was initiated either on the day of surgery following recovery from anesthesia or 35 days following the surgery.
Oral dosage was by gavage in 0.5 mL of 1% carboxymethylcellulose (CMC).
(§1) Body weight was determined at the time of surgery and weekly during the study, and the dosage was adjusted with changes in body weight. Vehicle-treated ovariectomized (ovex) rats and non-ovariectomized (intact) rats were evaluated in parallel with each experimental group to serve as negative and positive controls.
(§2) The rats were treated daily for 35 days (6 rats per treatment group) and sacrificed by decapitation on the 36th day. […] At the time of sacrifice, the uteri were removed, dissected free of extraneous tissue, and the fluid contents were expelled before determination of wet weight in order to confirm estrogen deficiency associated with complete ovariectomy. […] The uteri were then placed in 10% neutral buffered formalin to allow for subsequent histological analysis.
The right femurs are excised and scanned at the distal metaphysis proximal from the growth plate region by grey scale image analysis of digitalized X-ray generation on a Nicolet NXR-1200 real time X-ray imaging system.

[2] = Body weight change in the ovex rat study BBA-9311
Experimental: as §1

[3] = tested on: ovariectomized (ovex) rats; experiment: Uterine wet weight in the ovex rat study BBA-9311
Experimental: as §2

[4] = Table 1, 1 mg/kg PO CDX, 47KV/4.5C, 35 days

SMILES	anti-resorptive activity (in words) [1]	RANGE 0-50 (relative density of bone, femur X-ray grey scale) [1, 4]	Ave BW Chg ([2]; Table 4 BBA-9311, 1 mg/kg)	Ave BW Chg ([2]; Table 4 BBA-9311, .1 mg/kg)	Ave Ut Wt ([3]; Table 4 BBA-9311, 1 mg/kg)	Ave Ut Wt ([3]; Table 4 BBA-9311, .1 mg/kg)	further results
Cl.O=C(c1ccc(OCCN2CCCCC2)cc1)c1c(-c2ccc(O)cc2)sc2cc(O)ccc12 [RAL, [6-hydroxy-2-(4-hydroxyphenyl)benzo[b]thien-3-yl][4-[2-(1-piperidinyl)ethoxy]phenyl]methanone hydrochloride]	inactive	57.67*	49.667	75.833	166.000	157.667	RANGE 0-50 (relative density of bone, femur X-ray grey scale) ([1]; Table 2, 1 mg/kg PO CDX): 80.98*; RANGE 0-60 (relative density of bone, femur X-ray grey scale) ([1]; 0.1 mg/kg PO CDX, 47KV/4.5C): 36.76; RANGE 0-60 (relative density of bone, femur X-ray grey scale) ([1]; 1 mg/kg PO CDX): 40.37
CC(=O)O[C@]1(C(C)=O)CC[C@H]2[C@@H]3C[C@H](C)C4=CC(=O)CC[C@]4(C)[C@H]3CC[C@@]21C [Provera]		30.10					protection from bone loss (in words) ([1]; 10 mg/kg, by itself): protective effect; RANGE 0-50 (relative density of bone, femur X-ray grey scale) ([1]; Table 1, 10 mgmg/kg PO CDX, 47KV/4.5C, 35 days): 64.16*
NCCCC(O)(P(=O)(O)O)P(=O)(O)O [ALN, Alendronate]	inactive		106.000	102.167	108.667	100.833	
C#C[C@]1(O)CC[C@H]2[C@@H]3CCc4cc(O)ccc4[C@H]3CC[C@@]21C [EE2, ethynylestradiol]							RANGE 0-50 (relative density of bone, femur X-ray grey scale) ([1]; Table 1, 100 μg/kg PO CDX): 51.29*; RANGE 0-50 (relative density of bone, femur X-ray grey scale) ([1]; Table 2, 30 μg/kg PO CDX): 50.87; RANGE 0-50 (relative density of bone, femur X-ray grey scale) ([1]; Table 2, 100 μg/kg PO CDX): 61.09*; RANGE 0-60 (relative density of bone, femur X-ray grey scale) ([1]; 100 μg/kg PO CDX): 62.88*; Ave BW Chg ([2]; Table 4, 100 μg/kg): 49.000; Ave Ut Wt ([3]; Table 4, 100 μg/kg): 399.000
